From PMC10788917 (Journal of Medicinal Chemistry, 2023) come the findings set out here.

Read-outs that look alike come from different tables or passages of the source.

For one assay, the target named is T1, HDAC8 Cys153Ser mutant (Homo sapiens, UniProt Q9BY41, C153S).
T1 construct: made in house
The experiment in a line: HDAC8 mutant biochemical assay. As to conditions: preincubation 1 h.

A further assay deals with HEL cells. The experiment in a line: CellTiter-Blue cell viability assay. As to conditions: Homo sapiens, 72 h, HDAC8-independent line, Figure 7B. In kind it is cell-based. How it is done: (§1) All cell lines were purchased from DSMZ (Braunschweig, Germany). The cell lines were regularly tested to exclude mycoplasma contamination and authenticated. […] Media were supplemented with 10% fetal calf serum (FCS), 10 units/mL penicillin, 10 μg/mL streptomycin, and 2 mM L-glutamine (all Gibco, Thermo Fisher Scientific).
(§2) To determine the IC50 of the selected compounds on the cell lines, the CellTiter-Blue cell viability assay (Promega) was performed. For this, cells were seeded in 96-well flat-bottom plates at a cell density of 10 000 cells/well. Cells were treated in triplicate with the compound of interest at various concentrations or with 10 μM Bortezomib (S1013; Selleck Chemicals, Houston, TX), as a positive control. […] Plates were measured using a GloMax plate reader (Promega), and IC50 values were determined by nonlinear regression using GraphPad Prism version 9.1.1 (GraphPad Software, Inc.), and the data are reported as mean values ± the standard error of the mean.
On the technique in general: Alamar Blue is a resazurin reagent that responds to reducing activity.

In another assay the test system is MOLM-13 cells. Kind of assay: CellTiter-Blue cell viability assay. In kind it is cell-based. The conditions noted are these: Homo sapiens, 72 h, HDAC8-dependent line, Figure 7B. How it is done: as §1, §2
In another assay the test system is MV4-11 cells. Kind of assay: CellTiter-Blue cell viability assay. It counts as cell-based. As to conditions: Homo sapiens, 72 h, HDAC8-dependent line, Figure 7B. How it is done:
as §1, §2

In a further assay the test system is OCI-AML3 cells. Kind of assay: CellTiter-Blue cell viability assay. In kind it is cell-based. The conditions noted are these: Homo sapiens, OCI-AML-3; 72 h, HDAC8-dependent line, Figure 7B. How it is done:
as §1, §2

For another assay, the system named is SET2 cells. The experiment in a line: CellTiter-Blue cell viability assay. It counts as cell-based. As to conditions: Homo sapiens, SET-2; 72 h, HDAC8-independent line, Figure 7B. As to the method:
as §1, §2

The subject of a further assay is THP-1 cells. The experiment in a line: CellTiter-Blue cell viability assay. It counts as cell-based. The conditions noted are these: Homo sapiens, 72 h. How it is done:
as §1, §2

The next assay relates to HL60 cells. Kind of assay: CellTiter-Blue cell viability assay. It counts as cell-based. As to conditions: Homo sapiens, HL-60; 72 h, Figure 7A. As to the method: All cell lines were purchased from DSMZ (Braunschweig, Germany). The cell lines were regularly tested to exclude mycoplasma contamination and authenticated. Cell lines were grown at 37 °C and 5% CO2 in RPMI 1640 medium (Gibco, Thermo Fisher Scientific). Media were supplemented with 10% fetal calf serum (FCS), 10 units/mL penicillin, 10 μg/mL streptomycin, and 2 mM L-glutamine (all Gibco, Thermo Fisher Scientific).
To determine the IC50 of the selected compounds on the cell lines, the CellTiter-Blue cell viability assay (Promega) was performed. For this, cells were seeded in 96-well flat-bottom plates at a cell density of 10 000 cells/well. Cells were treated in triplicate with the compound of interest at various concentrations or with 10 μM Bortezomib (S1013; Selleck Chemicals, Houston, TX), as a positive control. The cell viability of treated cell lines was measured using CellTiter-Blue after incubation for 72 h. Plates were measured using a GloMax plate reader (Promega), and IC50 values were determined by nonlinear regression using GraphPad Prism version 9.1.1 (GraphPad Software, Inc.), and the data are reported as mean values ± the standard error of the mean.

T1 sequence (Q9BY41 whole entry C153S): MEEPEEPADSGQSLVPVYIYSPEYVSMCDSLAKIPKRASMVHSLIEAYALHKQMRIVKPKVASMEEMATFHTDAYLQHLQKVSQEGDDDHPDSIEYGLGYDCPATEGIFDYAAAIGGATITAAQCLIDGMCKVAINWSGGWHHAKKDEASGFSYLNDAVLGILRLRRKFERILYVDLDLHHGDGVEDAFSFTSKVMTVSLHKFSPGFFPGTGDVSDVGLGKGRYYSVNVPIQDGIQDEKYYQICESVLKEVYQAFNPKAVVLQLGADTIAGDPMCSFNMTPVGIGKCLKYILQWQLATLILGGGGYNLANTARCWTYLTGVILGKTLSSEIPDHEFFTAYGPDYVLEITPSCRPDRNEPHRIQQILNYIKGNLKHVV

What is called IC50 is the concentration that gives 50% inhibition. For `C#Cc1c[n+](C)ccc1NC(=O)CC(=O)N1Cc2ccccc2C1.[I-]` [compound 3, 3-Ethynyl-4-[3-(isoindolin-2-yl)-3-oxopropanamido]-1-methylpyridin-1-ium Iodide], the 50% inhibitory concentration (IC50) against HDAC8 Cys153Ser mutant was 58.8 µM; in the assay with HEL cells it was > 200 µM; in the assay on MOLM-13 cells, 7.08 ± 1.07 µM; with MV4-11 cells, 8.23 ± 0.12 µM; with OCI-AML3 cells, 27.2 ± 5.86 µM; in the assay on SET2 cells, > 200 µM. The IC50 in the assay with THP-1 cells (Figure 7A, read-out: cell viability IC50, THP-1) came out at 46.5 µM; in the assay with THP-1 cells (HDAC8-independent line, Figure 7B, read-out: THP-1 IC50) it was 78.1 ± 32.8 µM; in the assay with HL60 cells, 161 µM.
